Test results published in article PMC2784364, “VX-166: a novel potent small molecule caspase inhibitor as a potential therapy for sepsis” (Critical Care, 2009).
Entries after “also recorded” stand apart in the source; their conditions may differ. Where two headings read alike, the source gives them in different places.

Assays:
[1] = tested on: Jurkat cells; assay: Anti-Fas induced apoptosis in Jurkat cells, Annexin V; format: cell-based, human; details: Anti-Fas, Human Jurkat cell line/Annexin V, 18 hours, n = 4; read-out: IC50, inhibition of apoptosis
Procedure: (§1) Jurkat cells were obtained from LGC Standards (Teddington, UK) and were grown in RPMI 1640, 10% FCS, 2 mM L-glutamine, 100 U/ml penicillin and 0.1 mg/ml streptomycin (all from Sigma Aldrich Ltd., Poole, UK) at 37°C in 5% CO2/95% humidity. Receptor- or stress-mediated apoptosis (2 × 10^5 cells/ml) was induced by addition of either anti-Fas antibody CH-11 (10 ng/ml, Millipore UK Ltd., Watford, UK), TNF-α (20 ng/ml, R&D Systems, Abingdon, UK) with cycloheximide (112 ng/ml, Sigma Aldrich Ltd., Poole, UK) or staurosporine (350 ng/ml, Sigma Aldrich Ltd., Poole, UK). VX-166 was diluted into DMSO (10 mM), further diluted in media and added at a range of concentrations. Cells were then incubated for 18 hours. Apoptotic cells were then labelled with Cy5-conjugated Annexin-V (BD Biosciences, Oxford, UK) and detected using a FMAT™ 8100 Fluorimetric Microassay Technology Reader (Applied Biosystems, Warrington, UK). For the experiments using anti-Fas antibody, apoptosis was additionally measured using a Cell Death Detection ELISA kit (Roche Diagnostics Ltd., Lewes, UK) following the manufacturer's instructions.

[2] = tested on: IL-1β release from peripheral blood mononuclear cells; assay: IL-1β release from LPS-treated PBMC; format: cell-based
Procedure: Peripheral blood mononuclear cells (PBMC) from healthy donors were isolated by Ficoll-Paque gradient centrifugation from buffy coats obtained from the National Blood Transfusion Service (Bristol, UK). For IL-1β release, 5 × 10^5 cells/ml were then stimulated with 50 ng/ml lipopolysaccharide (LPS) from Escherichia coli (Sigma-Aldrich Ltd., Poole, UK) in the presence or absence of VX-166 and incubated for 18 hours. Secretion of IL-1β into the supernatant was determined by ELISA (R&D Systems, Abingdon, UK) following the manufacturer's instructions. For IL-18 release, 7.5 × 10^5 cells/ml were stimulated with 6.25 × 10^-4% (w/v) Staphylococcus aureus cell suspension (SAC; Sigma-Aldrich Ltd., Poole, UK) in the presence or absence of VX-166 and incubated overnight. The IL-18 content in the supernatants was quantified by ELISA (Caltag-MedSystems Ltd., Buckingham, UK) following the manufacturer's instructions. In both assays PBMC viability was assessed after the 18 hours incubation time using MTS assay (Promega UK Ltd., Southampton, UK) to ensure that the reduction in cytokine release was not caused by a cytotoxic effect of the compound.

[3] = tested on: human aorta endothelial cells (HAEC); assay: Apoptosis assay in human aorta endothelial cells, serum withdrawal, DNA fragmentation; format: cell-based; details: Endothelial cell, Serum withdrawal and nutrient deprivation, 48 hours, n = 4, read-out: IC50, inhibition of apoptosis
Procedure: Human aorta endothelial cells (HAEC) were purchased from Cambrex Bio Science Wokingham Ltd., (Wokingham, UK) and cultured as recommended by the supplier. Apoptosis was induced in 5 × 10^4 cells/ml by addition of medium deprived of serum and growth factors. VX-166 was added at a range of concentrations as described above and the cells incubated for 48 hours at 37°C in an atmosphere of 5% CO2/95% humidity. Apoptosis was measured using a Cell Death Detection ELISA kit (Roche Diagnostics Ltd., Lewes, UK) following the manufacturer's instructions.

[4] = CLP rat, plasma endotoxin by LAL kit; format: in vivo; details: 20 hours, 25 mg/ml pump, n = 10, P < 0.05
Procedure: CLP studies were performed in accordance with the National Institutes of Health guidelines for the use of experimental animals and were approved by the Institutional Animal Care and Use Committee of the Feinstein Institute for Medical Research. Adult male Sprague-Dawley rats (weighing 275 to 325 g, Charles River Laboratories, Wilmington, MA, USA) were fasted overnight then anaesthetised with isoflurane. The caecum was exposed via a 2 cm midline incision. It was ligated just distal to the ileocaecal valve, then punctured twice with an 18-gauge needle and gently squeezed to release a small amount of faecal material to ensure patency of the perforation sites before the abdominal incision was closed. Sham-operated rats underwent the same procedure with the exception that the caecum was neither ligated nor punctured. […]
Blood samples were centrifuged at 1500 g for 15 minutes at 4°C, the plasma was removed and stored at -80°C until analysis. Plasma IL-1β levels were determined by ELISA (R&D Systems Inc., Minneapolis, MN, USA) following the manufacturer's instructions. Plasma endotoxin levels were determined using a Limulus amebocyte lysate (LAL) kit (Associates of Cape Cod, Inc., East Falmouth, MA, USA) according to the manufacturer's instruction. […] The optical density was determined at 405 nm using a spectrophotometer. The levels of endotoxin were then calculated and expressed as EU/ml.

[5] = tested on: Jurkat cells; assay: Anti-Fas induced apoptosis in Jurkat cells, DNA fragmentation (Cell Death Detection ELISA); format: cell-based; details: Human Jurkat cell line/DNA fragmentation, n = 4, read-out: IC50, inhibition of apoptosis
Procedure: as §1

## CCC(C(=O)NC(CC(=O)O)C(=O)COc1c(F)c(F)cc(F)c1F)n1cccc(NC(=O)OC)c1=O (stereo not drawn) [VX-166]
[1]
  IC50: 27 ± 9 nM
[2]; Homo sapiens, PBMC, 18 h, n = 4, read-out: IC50 ± SD, inhibition of IL-1β release
  IC50: < 500 nM
[2]; LPS-treated human PBMC, 18 hours, n = 4, read-out: IC50 ± SD, inhibition of IL-1β release
  IC50: 260 ± 120 nM
[3]
  IC50: 310 ± 70 nM
[4]
  plasma endotoxin level vs vehicle CLP: reduced plasma endotoxin levels; also recorded: reduced the level of endotoxin
[5]
  IC50: 45 ± 7 nM
